Results: PubChem BioAssay AID2060611 (Molecular Pharmacology Branch, DTP, NCI, 2025)

Test system: 628569-122-R-J1-PDC complex spheroid viability
Assay: Anticancer human tumor 628569-122-R-J1-PDC patient-derived head and neck squamous carcinoma cell line growth inhibition [CLK]
Conditions: for IC50: curve of first compound; for viability, T/C: stronger effect = lower value
Excerpt: A high-throughput screen of multi-cell type tumor spheroids was designed to identify active combinations of […] and targeted small molecules. Complex spheroids include a stromal component modeled by human endothelial cells (HUVEC) and fibroblasts modeled by human mesenchymal stem cells (MSCs). The concentration ranges selected for each drug and investigational agent were based upon clinically achievable concentrations if the clinical Cmax of the agent was known.
Compounds. The drugs and investigational agents: cirtuvivint (SM08502; NSC835563), CC-671 (NSC850746), vemurafenib (NSC761431), tapotoclax (NSC804041), sotorasib (NSC818433), adagrasib (NSC831453), MRTX-1133 (NSC836407), BAY2416964 (NSC825713), copanlisib (NSC816437), inavolisib (NSC800729), abemaciclib (NSC768073), osimertinib (NSC779217), entinostat (NSC756642), eltanexor (KPT-8602, NSC794443), venetoclax (NSC766270), ceralasertib (NSC777638), bortezomib (NSC756655), olaparib (NSC753686), talazoparib (NSC767125), alisertib (NSC759677), peposertib (NSC802822), gemcitabine (NSC613327), 5-fluorouracil (NSC19893), SN-38 (NSC673596), oxaliplatin (NSC266046), paclitaxel (NSC125973), and doxorubicin (NSC123127), were obtained from the National Cancer Institute (NCI) Developmental Therapeutics Program Chemical Repository. The FDA-approved anticancer drug set is available from the Developmental Therapeutics Program at https://dtp.cancer.gov/organization/dscb/obtaining/available plates.htm. […] The stock solutions were prepared in dimethyl sulfoxide (DMSO, Sigma-Aldrich, St. Louis, MO, cat. D2650), except for the platinum complexes which were prepared in saline (Quality Biological, Gaithersburg, MD, cat. 114-055-101), at 800-fold the tested concentration and stored at -70 degrees C prior to their use. All drugs and investigational agents were tested over a range starting from a high concentration at or near the clinical Cmax and decreasing in half-log increments. If the clinical Cmax for an agent had not been determined, the highest concentration tested was 10 microM.
Cell Culture. All cells were maintained in an incubator at 37 degrees C and 5% CO2 with 95% humidity. The PDC lines were cultured according to standard operating procedures established by the NCI PDMR. Briefly, all PDCs were thawed and cultured in Matrigel-coated flasks prepared with a working solution of 1X Ham's F-12 nutrient mix, without supplementation (Invitrogen, Waltham, MA, cat. 11765054), 100 U/mL penicillin-streptomycin (Invitrogen, cat. 15140122), and 2.5% Matrigel (Corning Inc., Corning, NY, cat. 354248) for the first three passages. The 947758-054-R-J2-PDC line was cultured in 6B/Colon 1A media, which includes advanced DMEM/F-12 (Thermo Fisher Scientific, cat. 12634028), 10 mM HEPES (Thermo Fisher Scientific, cat. 15630080), 1X GlutaMAX supplement (Thermo Fisher Scientific, cat. 35050061), 0.1 mg/mL primocin (InvivoGen, cat. ant-pm-2), 10% defined fetal bovine serum, heat inactivated (HyClone Laboratories Inc., cat. SH30070.03HI), 1.25 mM N-Acetyl-L-cysteine (Sigma-Aldrich, cat. A9165), 10 mM nicotinamide (Sigma-Aldrich, cat. N0636), 1X B-27 supplement (Thermo Fisher Scientific, cat. 17504044), 1X N-2 supplement (Thermo Fisher Scientific, cat. 17502048), and 10 microM Y-27632 dihydrochloride (Tocris Bioscience, cat. 1254). The 876862-298-R-J1-PDC was cultured in 6E media, which includes all 6B/Colon 1A media components plus 50% L-WRN conditioned media (ATCC, cat. CRL-3276), 50 ng/mL recombinant human EGF recombinant protein (hEGF; Thermo Fisher Scientific, cat. PHG0311), 10 ng/mL recombinant human fibroblast growth factor 10 (hGFG-10; PeproTech, cat. 100-26), 1 ng/mL recombinant human fibroblast growth factor 2 (hFGF-2; PeproTech, cat. 100-18B), and 1 µM prostaglandin E2 (PGE2; Tocris, cat. 2296). The 227483-062-R1-J1-PDC line was cultured in Panc media, containing all 6E components except hFGF-2, with the addition of 500 nM SB-431542 (Selleckchem, cat. S1067) and 10 nM gastrin (Tocris, cat. 3006). […]

[1] = second compound 0.0316 µM, first compound 0.0316 µM
[2] = second compound 0.0316 µM, first compound 0.1 µM
[3] = second compound 0.0316 µM, first compound 0.316 µM
[4] = second compound 0.0316 µM, first compound 1 µM
[5] = second compound 0.0316 µM, first compound 3.16 µM
[6] = second compound 0.0316 µM, first compound 10 µM
[7] = second compound 0.1 µM, first compound 0.0316 µM
[8] = second compound 0.1 µM, first compound 0.1 µM
[9] = second compound 0.1 µM, first compound 0.316 µM
[10] = second compound 0.1 µM, first compound 1 µM
[11] = second compound 0.1 µM, first compound 3.16 µM
[12] = second compound 0.1 µM, first compound 10 µM
[13] = second compound 0.316 µM, first compound 0.0316 µM
[14] = second compound 0.316 µM, first compound 0.1 µM
[15] = second compound 0.316 µM, first compound 0.316 µM
[16] = second compound 0.316 µM, first compound 1 µM
[17] = second compound 0.316 µM, first compound 3.16 µM
[18] = second compound 0.316 µM, first compound 10 µM
[19] = second compound 1 µM, first compound 0.0316 µM
[20] = second compound 1 µM, first compound 0.1 µM
[21] = second compound 1 µM, first compound 0.316 µM
[22] = second compound 1 µM, first compound 1 µM
[23] = second compound 1 µM, first compound 3.16 µM
[24] = second compound 1 µM, first compound 10 µM
[25] = second compound 3.16 µM, first compound 0.0316 µM
[26] = second compound 3.16 µM, first compound 0.1 µM
[27] = second compound 3.16 µM, first compound 0.316 µM
[28] = second compound 3.16 µM, first compound 1 µM
[29] = second compound 3.16 µM, first compound 3.16 µM
[30] = second compound 3.16 µM, first compound 10 µM
[31] = second compound 10 µM, first compound 0.0316 µM
[32] = second compound 10 µM, first compound 0.1 µM
[33] = second compound 10 µM, first compound 0.316 µM
[34] = second compound 10 µM, first compound 1 µM
[35] = second compound 10 µM, first compound 3.16 µM
[36] = second compound 10 µM, first compound 10 µM
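Further: spheroids exposed to agents for seven days before readout.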
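Wherever viability, T/C is given: 100% = DMSO vehicle control viability.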

## C#Cc1c(F)ccc2cc(O)cc(-c3ncc4c(N5CC6CCC(C5)N6)nc(OCC56CCCN5CC(F)C6)nc4c3F)c12 (centres undefined) + CN1CCN(c2cc(C(=O)Nc3cc4cc(-c5cnn(C)c5)ccc4cn3)ccn2)CC1
Second compound 0.0316 µM
  IC50: > 10000 nM
Second compound 0.1 µM
  IC50: > 10000 nM
Second compound 0.316 µM
  IC50: < 31.6 nM
Second compound 1 µM
  IC50: < 31.6 nM
Second compound 3.16 µM
  IC50: < 31.6 nM
Second compound 10 µM
  IC50: < 31.6 nM
[1]
  viability, T/C: 80.5%
[2]
  viability, T/C: 100%
[3]
  viability, T/C: 88.8%
[4]
  viability, T/C: 92.9%
[5]
  viability, T/C: 84.8%
[6]
  viability, T/C: 96%
[7]
  viability, T/C: 56.6%
[8]
  viability, T/C: 61.1%
[9]
  viability, T/C: 64.8%
[10]
  viability, T/C: 63.3%
[11]
  viability, T/C: 57.1%
[12]
  viability, T/C: 44.9%
[13]
  viability, T/C: 32.3%
[14]
  viability, T/C: 33.5%
[15]
  viability, T/C: 34.9%
[16]
  viability, T/C: 42.4%
[17]
  viability, T/C: 37.6%
[18]
  viability, T/C: 29.9%
[19]
  viability, T/C: 7.93%
[20]
  viability, T/C: 5.94%
[21]
  viability, T/C: 7.93%
[22]
  viability, T/C: 8.03%
[23]
  viability, T/C: 5.77%
[24]
  viability, T/C: 5.01%
[25]
  viability, T/C: 9.44%
[26]
  viability, T/C: 7.11%
[27]
  viability, T/C: 5.82%
[28]
  viability, T/C: 5.27%
[29]
  viability, T/C: 5.66%
[30]
  viability, T/C: 7.7%
[31]
  viability, T/C: 5.72%
[32]
  viability, T/C: 3.17%
[33]
  viability, T/C: 2.28%
[34]
  viability, T/C: 4.25%
[35]
  viability, T/C: 5.23%
[36]
  viability, T/C: 1%

## C=C(F)C(=O)N1CCN(c2nc(OCC3CCCN3C)nc3c2CCN(c2cccc4cccc(Cl)c24)C3)CC1CC#N (centres undefined) + CN1CCN(c2cc(C(=O)Nc3cc4cc(-c5cnn(C)c5)ccc4cn3)ccn2)CC1
Second compound 0.0316 µM
  IC50: 7260 nM
Second compound 0.1 µM
  IC50: 4560 nM
Second compound 0.316 µM
  IC50: < 31.6 nM
Second compound 1 µM
  IC50: < 31.6 nM
Second compound 3.16 µM
  IC50: < 31.6 nM
Second compound 10 µM
  IC50: < 31.6 nM
[1]
  viability, T/C: 102%
[2]
  viability, T/C: 80.5%
[3]
  viability, T/C: 98.3%
[4]
  viability, T/C: 108%
[5]
  viability, T/C: 113%
[6]
  viability, T/C: 30.6%
[7]
  viability, T/C: 64.3%
[8]
  viability, T/C: 67.4%
[9]
  viability, T/C: 64.1%
[10]
  viability, T/C: 62.7%
[11]
  viability, T/C: 87.9%
[12]
  viability, T/C: 8.57%
[13]
  viability, T/C: 35%
[14]
  viability, T/C: 37.6%
[15]
  viability, T/C: 34.7%
[16]
  viability, T/C: 32.2%
[17]
  viability, T/C: 39.1%
[18]
  viability, T/C: 2.52%
[19]
  viability, T/C: 7.05%
[20]
  viability, T/C: 4.72%
[21]
  viability, T/C: 5.61%
[22]
  viability, T/C: 5%
[23]
  viability, T/C: 5.11%
[24]
  viability, T/C: 1.51%
[25]
  viability, T/C: 6.63%
[26]
  viability, T/C: 4.67%
[27]
  viability, T/C: 7.01%
[28]
  viability, T/C: 6.75%
[29]
  viability, T/C: 3.34%
[30]
  viability, T/C: 0.55%
[31]
  viability, T/C: 1.82%
[32]
  viability, T/C: 2.41%
[33]
  viability, T/C: 3.57%
[34]
  viability, T/C: 3.3%
[35]
  viability, T/C: 0.98%
[36]
  viability, T/C: 1.32%
